Test results: patent US11236120B2, “Azithromycin derivatives with epithelial barrier enhancement properties” (EpiEndo Pharmaceuticals ehf, priority 2015, dated 2022)
≈ marks a conversion by molar mass, not a printed value. Entries after “also recorded” stand apart in the source; their conditions may differ.

Experiments:
[1] = tested on: Streptococcus pneumoniae (ATCC49619); test: Assay 1: antimicrobial broth dilution on microtiter plates, Streptococcus pneumoniae; type: cell-based; details: Str
Procedure: (§1) The antimicrobial activity of each Example compound was investigated. The Minimal Inhibitory Concentration (MIC—the minimal dose required to inhibit bacterial growth) and the Minimal Bactericidal Concentration (MBC—the minimal dose required to kill bacteria) were measured for each compound for Streptococcus pneumoniae (ATCC49619), Staphylococcus aureus (ATCC29213), Bacillus megaterium (BM-11) and Escherichia coli (D-21) using an antimicrobial broth dilution method on microtiter plates. The Minimal Inhibitory Concentration (MIC) was also measured for each example compound and azithromycin with Mycobacterium avium complex (MAC). […]
(§2) The Minimal Inhibitory Concentration (MIC—the minimal dose required to inhibit bacterial growth) and the Minimal Bactericidal Concentration (MBC—the minimal dose required to kill bacteria) were measured for each compound for Streptococcus pneumoniae (ATCC49619), Staphylococcus aureus (ATCC29213), Bacillus megaterium (BM-11) and Escherichia coli (D-21) using an antimicrobial broth dilution method on 96 well microtiter plates. […]
(§3) After addition of the bacterial solution, the plates were incubated at 35° C. for 18 h. The bacterial growth of each well was then recorded and then the Minimal Inhibitory Concentration (MIC) and Minimal Bactericidal Concentration ([…]) were determined.

[2] = tested on: Staphylococcus aureus (ATCC29213); test: Assay 1: antimicrobial broth dilution on microtiter plates, Staphylococcus aureus; type: cell-based; details: S. aureus (ATCC29213)
Procedure: as §1, §2, §3

[3] = tested on: Mycobacterium intracellulare; test: Assay 2: STC colorimetric microplate assay, M. intracellulare; type: cell-based
[4] = Solubility in 10 mM phosphate buffer (pH 7.4); type: physicochemical; details: pH 7.4, aqueous buffer, kinetic from dmso stock, 60 minutes at room temperature, filtered, read-out: MTS Solubility in Buffer (pH 7.4)
Procedure: Solubility in 10 mM Phosphate Buffer (pH 7.4)
The solubility sample testing of the compounds was performed by in phosphate buffer at pH 7.4 and using HPLC-MS detection. A stock solution of […] in DMSO was prepared for each compound. For the solubility test sample, 100 μL of the stock solution was diluted with 3.9 mL of a 10 mM phosphate buffer at […] to a final concentration of […]. The buffer solution was left to stand for 60 minutes at room temperature and then filtered. The filtrate was analyzed against two calibration points of the same analyte prepared at […] using HPLC-MS. These calibration points were prepared from the same stock solution as the solubility sample by diluting it with DMSO:H2O (1:1) 1:40 and then again 1:10. The chromatographic signal area of the analyte in the solubility sample was then compared to the chromatographic signal area of the two calibration samples.
The chromatographic separation was performed on a Waters HPLC-MS system using a 50×2.1 mm×Bridge C18 column and a gradient elution of Water with 0.1% formic acid and acetonitrile with 0.1% formic acid. The analytes were analyzed in positive electro-spray mode using the (M+H)^+ in single ion recording.

[5] = tested on: barrier integrity in the lungs of mice under sulphur dioxide insult; test: Barrier integrity enhancement in the lung: HSA leakage into BAL after sulphur dioxide insult; type: in vivo
Procedure: The effect of compounds of the invention on maintenance of barrier integrity in the lungs of mice under sulphur dioxide insult was investigated.
1. 15 female mice were randomised into 3 groups of 5 mice. The three groups were: • a) Control group • b) Azithromycin treatment group • c) Investigational compound treatment group
2. The mice were pre-treated for three days with: • a) Placebo (Phosphate buffered saline—PBS) given at a dose of 10 mg/kg in an intravenous injection of 100 μl three times per week. • b) Azithromycin: given at a dose of 10 mg/kg in an intravenous injection of 100 μl three times per week. • c) The compound of Example 2: given at a dose of 10 mg/kg in an intravenous injection of 100 μl three times per week.
3. One mouse in each group was set to one side as a control. Four mice were then exposed to sulphur dioxide gas at a concentration of 200 ppm in air for a period of 60 minutes. The mice were in a cage that was inserted into a 45 L treatment box with a removable lid, a gas feed line and a gas exhaust vent. […] The gas was premixed from bottled air and bottled 200 ppm SO2 in a first box and then fed into the treatment box. The level of SO2 being fed into the treatment box can be varied by adjusting the relative flow of air and SO2 from the two source cylinders. As the sulphur dioxide concentration in this experiment was 200 ppm, it was used neat, with no additional air being mixed with it. The mice had access to food and water for the duration of the treatment.
4. 24 hours after the end of the treatment, 1 mg of human serum albumin (HSA) in 100 μl saline was injected into the tail vein of each mouse, and fluorescent dextrans (FDs) were injected into the airways. The mice were then kept sedated for 90 minutes.
5. After 90 minutes, the mice were sacrificed via exsanguination. Plasma and bronchoalveolar lavage (BAL) were collected and the lungs were processed for paraffin embedding.
6. The level of HSA in the BAL was quantified by ELISA. The ELISA test used was the one commercially available from abcam (Human Serum Albumin kit ab179887). In line with the kit manufacturer's instructions, absorbance at […] was measured. Fluorescent dextrans are quantified using a fluorescent plate reader.
The level of HSA that leaks into the lungs, as found in the BAL, is a measure of the integrity of the lung epithelial barrier.
In the placebo group, there were experimental difficulties with two of the four mice; in the Azithromycin group, there were experimental difficulties with one of the four mice; and in the investigational compound group, there were experimental difficulties with two of the four mice. Therefore, results were obtained from two mice in each of the placebo and investigational compound groups, and from three mice in the Azithromycin group.

Molecule `CC[C@H]1OC(=O)[C@H](C)[C@@H](O[C@H]2C[C@@](C)(OC)[C@@H](O)[C@H](C)O2)[C@H](C)[C@@H](O[C@@H]2O[C@H](C)C[C@H](N(C)C)[C@H]2O)[C@](C)(O)C[C@@H](C)CN(C)[C@H](C)[C@@H](O)[C@]1(C)O` [Azithromycin, (2R,3S,4R,5R,8R,10R,11R,12S,13S,14R)-11-[(2S,3R,4S,6R)-4-(dimethylamino)-3-hydroxy-6-methyl-tetrahydropyran-2-yl]oxy-2-ethyl-3,4,10-trihydroxy-13-[(2R,4R,5S,6S)-5-hydroxy-4-methoxy-4,6-dimethyl-tetrahydropyran-2-yl]oxy-3,5,6,8,10,12,14-heptamethyl-1-oxa-6-azacyclopentadecan-15-one] has an MBC [1] of 0.06 mg/L (≈ 0.0801 µM), an MIC [1] of 0.06 mg/L (≈ 0.0801 µM) and an MBC [2] of 8 mg/L (≈ 10.7 µM). For the same molecule, the MIC [2] was 2 mg/L (≈ 2.67 µM), the MIC ([3]; Mycobacterium intracellulare S1005200118) was 32 mg/L (≈ 42.7 µM) and the MIC ([3]; Mycobacterium intracellulare S1305150028) was 4 mg/L (≈ 5.34 µM). The solubility at 60 min [4] was 0.26 µM (≈ 0.195 µg/mL), the “HSA level - absorbance at 600 nm” value ([5]; HSA in BAL by ELISA, mice, 10 mg/kg intravenous, 200 ppm SO2 for 60 minutes) was 0.346 ± 0.031 and the “leakage of HSA into the lung following SO2 insult” value ([5]; compared with control, FIG. 1) was “reduced compared with the control; also recorded: reduced compared with a control”. For the same molecule, the “HSA level - absorbance at 600 nm relative to control” value ([5]; relative to PBS control, mice, 10 mg/kg intravenous, 200 ppm SO2 for 60 minutes) was 0.593 ± 0.053.
